Results published in patent publication US20080311126A1, “Antisense Oligonucleotides Directed to Ribonucleotide Reducatase R2 and Uses Thereof in Combination Therapies for the Treatment of Cancer” (Genesense Technologies, Inc, priority 2004, published 2008).
Oligonucleotides are written 5' to 3', each unit as a sugar letter and its base; * is a phosphorothioate linkage, no mark a phosphodiester; rarer units and linkages stand in square brackets, end groups in braces. Plain capitals give the bases only. d = 2'-deoxy (DNA)

Columns and labels:
Experiment in all cases: Relative colony forming efficiency (Example 17, Table 13)
Assay type in all cases: cell-based, human
A549 lung cell carcinoma = details: averages of 2-8 determinations
Protocol: (§1) Colony forming efficiency was determined using standard protocols. […] The test oligonucleotides were added to cell cultures in the presence of 2.5 μg of DOTMA/DOPE (Lipofectin; Life Technologies, Inc.) for four hours. The oligonucleotide was tested at 0.2 μM unless otherwise indicated. Controls were the cultures treated with lipofectin but without the oligonucleotide. […] Surviving cells were visualized by methylene blue staining, and colonies were scored. In some experiments cell aliquots were removed from the culture and viability was determined using the trypan blue exclusion test. Results were analyzed as percent of surviving cells compared to control cells. To test the antisense effects of many of these sequences as phosphorthioate deoxyribonucleotides, they were examined in relative colony forming experiments conducted as described in Example 16 with a series of human tumour cell lines. The results (shown as % inhibition of colony forming ability) obtained with cancer cells derived from the bladder, breast, lung, colon, pancreas, prostate, liver and cervix, are shown in Table 13. The specific cell lines employed are as follows: […]

[1] = tested on: HCT116 colon cell carcinoma; details: averages of 2-8 determinations
Protocol: as §1

[2] = tested on: HepG2 hepatocellular carcinoma; details: averages of 2-8 determinations
Protocol: as §1

[3] = tested on: MDA PaCa-2 pancreatic cell carcinoma; details: MIA PaCa-2 pancreatic cell carcinoma; averages of 2-8 determinations
Protocol: as §1

[4] = tested on: PC-3 prostrate cell adenocarcinoma; details: averages of 2-8 determinations
Protocol: as §1

[5] = tested on: T24 bladder cell carcinoma; details: averages of 2-8 determinations
Protocol: as §1

Sequence	Reduced relative colony forming efficiency, A549 (% inhibition of colony forming ability) (A549 lung cell carcinoma) [%]	Reduced relative colony forming efficiency, HCT116 (% inhibition of colony forming ability) [1] [%]	Reduced relative colony forming efficiency, HepG2 (% inhibition of colony forming ability) [2] [%]	Reduced relative colony forming efficiency, MIA PaCa-2 (% inhibition of colony forming ability) [3] [%]	Reduced relative colony forming efficiency, PC-3 (% inhibition of colony forming ability) [4] [%]	Reduced relative colony forming efficiency, T24 (% inhibition of colony forming ability) [5] [%]
TCCTCGCGGTCTTGCTGGCC (antisense dT*dC*dC*dT*dC*dG*dC*dG*dG*dT*dC*dT*dT*dG*dC*dT*dG*dG*dC*dC) [AS-II-323-20]	91.24	55.8	96.39	97.55	79.76	
CAAATGGGTTCTCTACTCTG (antisense dC*dA*dA*dA*dT*dG*dG*dG*dT*dT*dC*dT*dC*dT*dA*dC*dT*dC*dT*dG) [AS-II-1217-20]	91.49	68.68		34.85	81.03	66.36
TGGGACAGGGTGCACGGGCG (antisense dT*dG*dG*dG*dA*dC*dA*dG*dG*dG*dT*dG*dC*dA*dC*dG*dG*dG*dC*dG) [AS-II-130-20]	86.48		94.28	82.11	74.66	
AGCTGCTGCGGGTCCGTGAT (antisense dA*dG*dC*dT*dG*dC*dT*dG*dC*dG*dG*dG*dT*dC*dC*dG*dT*dG*dA*dT) [AS-II-225-20]		59.5		95.44	30.06	73.23
GAAGCCATAGAAACAGCGGG (antisense dG*dA*dA*dG*dC*dC*dA*dT*dA*dG*dA*dA*dA*dC*dA*dG*dC*dG*dG*dG) [AS-II-667-20]	70.3		88.23	85.26	91.8	70.48
AGCCTCTGCCTTCTTATACA (antisense dA*dG*dC*dC*dT*dC*dT*dG*dC*dC*dT*dT*dC*dT*dT*dA*dT*dA*dC*dA) [AS-II-472-20]	96.99	67.23		97.13	90.7	69.26
CCGTGGGCTCCTGGAAGATC (antisense dC*dC*dG*dT*dG*dG*dG*dC*dT*dC*dC*dT*dG*dG*dA*dA*dG*dA*dT*dC) [AS-II-344-20]					80.06	
TTCTGGCAAAAGGTGATACT (antisense dT*dT*dC*dT*dG*dG*dC*dA*dA*dA*dA*dG*dG*dT*dG*dA*dT*dA*dC*dT) [AS-II-1538-20]	90.34	51.28	96.84	50.62	84.71	67.29
ATCCAGCGCAAGGCCCAGTC (antisense dA*dT*dC*dC*dA*dG*dC*dG*dC*dA*dA*dG*dG*dC*dC*dC*dA*dG*dT*dC) [AS-II-816-20]	78.4	88.22	93.08	93.21	94.08	73.91
CGGCTCATCCTCCACGC (antisense dC*dG*dG*dC*dT*dC*dA*dT*dC*dC*dT*dC*dC*dA*dC*dG*dC) [AS-II-391-17]			60.64	26.35	93.25	
